Measurements as given in BindingDB's records for doi:10.1096/fasebj.10.12.8903510 (Roche Bioscience, 1996).

Target: 5-hydroxytryptamine receptor 4 (Cavia porcellus, UniProt O70528)
Sequence (O70528 whole entry): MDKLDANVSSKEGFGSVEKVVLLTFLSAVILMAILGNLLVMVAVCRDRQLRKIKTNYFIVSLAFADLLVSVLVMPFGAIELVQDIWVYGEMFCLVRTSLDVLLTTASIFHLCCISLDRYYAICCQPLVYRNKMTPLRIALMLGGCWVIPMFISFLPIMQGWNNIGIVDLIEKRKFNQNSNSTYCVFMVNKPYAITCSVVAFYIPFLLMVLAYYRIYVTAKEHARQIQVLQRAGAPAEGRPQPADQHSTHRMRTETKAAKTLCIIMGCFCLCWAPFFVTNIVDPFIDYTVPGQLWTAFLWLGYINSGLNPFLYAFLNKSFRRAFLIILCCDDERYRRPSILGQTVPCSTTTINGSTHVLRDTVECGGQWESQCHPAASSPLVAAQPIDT

Ki [nM] | Structure (SMILES)
0.03 | COc1[nH]c2ccc(F)cc2c1C(=O)OCC1CCN(CCNS(C)(=O)=O)CC1 [GR-125487]
0.01 | CCCCN1CCC(COC(=O)c2cc(Cl)c(N)c3c2OCCO3)CC1 [CAS_121881]
3.98 | COc1cc(N)c(Cl)cc1C(=O)OCCCN1CCCCC1
0.06 | Cn1cc(C(=O)OCC2CCN(CCNS(C)(=O)=O)CC2)c2ccccc21 [GR 113808]
1.99 | COc1cc(COc2cc(N)c(Cl)cc2C(=O)CCCCN2CCCCC2)cc(OC)c1 [RS-67532]
2.51 | CCN(CC)CCOC(=O)c1cc(Cl)c(N)cc1OC [SDZ-205557]

Structure (SMILES) | Ki [nM]
CCCCN1CCC(CNC(=O)c2c3n(c4ccccc24)CCCO3)CC1 [SB-207266] | 0.39
